From patent publication US11236095B2 (priority 2007, dated 2022)

Assay: Human dose prediction (human PK parameter estimation)
Details: plasma, read-out: half-life, estimated (human) (converted)

NC1(C(=O)N[C@@H](CCO)c2ccc(Cl)cc2)CCN(c2ncnc3[nH]ccc23)CC1 [Example 9, (S)-4-amino-N-(1-(4-chlorophenyl)-3-hydroxypropyl)-1-(7H-pyrrolo[2,3-d]pyrimidin-4-yl)piperidine-4-carboxamide]
half-life: ~6 h
